{
  "source": "patent US11548868B2",
  "about": "“Heterocyclic compounds, compositions comprising heterocyclic compound, and methods of use thereof” (JS INNOPHARM (SHANGHAI) LTD, priority 2017, dated 2023)",
  "key": {"[1]": {"target": "Recombinant human TDO2 (Homo sapiens, UniProt P48775)", "sequence (P48775 whole entry)": "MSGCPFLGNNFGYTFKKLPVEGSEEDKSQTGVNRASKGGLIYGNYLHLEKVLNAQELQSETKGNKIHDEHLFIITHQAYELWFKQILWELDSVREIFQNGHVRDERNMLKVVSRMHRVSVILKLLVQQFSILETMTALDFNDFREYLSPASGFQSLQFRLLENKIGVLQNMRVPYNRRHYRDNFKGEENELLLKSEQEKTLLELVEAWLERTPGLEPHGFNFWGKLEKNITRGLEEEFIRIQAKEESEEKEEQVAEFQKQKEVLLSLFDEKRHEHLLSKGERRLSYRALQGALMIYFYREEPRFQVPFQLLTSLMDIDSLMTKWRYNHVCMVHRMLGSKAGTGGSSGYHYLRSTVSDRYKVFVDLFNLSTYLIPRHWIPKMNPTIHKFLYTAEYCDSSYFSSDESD", "assay": "TDO2 Enzymatic Assay", "format": "biochemical", "settings": "recombinant human TDO2 200 nM, L-tryptophan 300 μM, 40 min room temperature, N′-formylkynurenine absorbance 321 nm; read-out: TDO2 bichemical activity*", "description": "(§1) The TDO2 biochemical inhibitory activity is determined by measuring the decrease in N′-formylkynurenine from tryptophan catalyzed by TDO2 enzyme. Recombinant human TDO2 (200 nM), L-tryptophan (300 μM), L-ascorbic acid (20 mM), methylene Blue (20 μM), catalase (0.2 mg/mL), and serial dilutions of the test compounds in a total volume of […] containing DMSO (with final DMSO concentration of 0.5%) and a pH 7.5 buffer containing potassium phosphate (50 mM) were added into each well in a 96-well plate. After incubation at room temperature for 40 min, the absorbance of the reaction mixture was read at 321 nm to measure the formation of N′-formylkynurenine by SpectraMax microplate reader. Percent inhibition of the test compounds was determined by measuring the decrease in N′-formylkynurenine as compared to the control of DMSO vehicle, which was calculated by formula of (WC-WT)/WC, where WC is the mean absorbance of the control well minus blank well; WT is the mean absorbance of the test well minus the blank well. Data was analyzed by GraphPad Prism 5 and the IC50 values were obtained by non-linear regression.\nThe IC50 values of TDO2 biochemical activity for the examples disclosed herein are listed in Table 2, A: ≤0.1 μM; B: >0.10 μM and ≤0.5 μM; C: >0.5 μM and ≤1.0 μM; and D: >1.0 μM."}, "[2]": {"target": "Recombinant human IDO1 (Homo sapiens, UniProt P14902)", "sequence (P14902 whole entry)": "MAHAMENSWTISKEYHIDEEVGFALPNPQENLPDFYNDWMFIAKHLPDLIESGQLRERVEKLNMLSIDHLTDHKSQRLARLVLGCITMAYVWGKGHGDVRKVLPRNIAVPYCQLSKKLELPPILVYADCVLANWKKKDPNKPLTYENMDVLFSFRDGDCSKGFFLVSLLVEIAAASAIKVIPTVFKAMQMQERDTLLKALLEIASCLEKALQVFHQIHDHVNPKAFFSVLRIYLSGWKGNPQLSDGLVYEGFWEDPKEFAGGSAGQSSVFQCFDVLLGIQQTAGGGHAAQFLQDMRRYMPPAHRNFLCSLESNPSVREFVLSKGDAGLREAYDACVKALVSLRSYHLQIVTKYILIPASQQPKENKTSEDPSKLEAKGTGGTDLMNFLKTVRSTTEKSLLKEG", "assay": "IDO1 Enzymatic Assay", "settings": "recombinant human IDO1 40 nM, L-tryptophan 100 μM, 40 min room temperature, N′-formylkynurenine absorbance 321 nm; read-out: IDO1 biochemical activity*", "description": "as §1, with “IDO1” for “TDO2”, “IDO1 (40” for “TDO2 (200”, “(100” for “(300”, “(WC−WT)/WC,” for “(WC-WT)/WC,”\nThe IC50 values of IDO1 biochemical activity for the examples disclosed herein are listed in Table 2, A: ≤0.1 μM; B: >0.10 μM and ≤0.5 μM; C: >0.5 μM and ≤1.0 μM; and D: >1.0 μM."}, "[3]": {"target": "T1, TDO2 in A172 cancer cells (Homo sapiens, UniProt P48775)", "T1 construct": "endogenous in cells; host or cells: A172 cancer cells", "T1 sequence (P48775 whole entry)": "as the sequence (P48775 whole entry) above", "assay": "TDO2 Cellular Assay (kynurenine production in A172 cancer cells)", "format": "cell-based", "settings": "L-Trp 1 mM, 24 hours incubation, kynurenine at 490 nm", "summary_of_the_method": "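Kynurenine output of A172 cells was read colorimetrically at 490 nm (Ehrlich reagent after TCA hydrolysis at 50 °C). Cells had 1 mM L-Trp plus compound at 0–25 μM in 0.25% DMSO for 24 h; IC50 values were fitted non-linearly from percent inhibition relative to vehicle.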"}, "[4]": {"target": "T2, IDO1 in Hela cancer cells (Homo sapiens, UniProt P14902)", "T2 construct": "endogenous in cells; host or cells: Hela cancer cells stimulated with human IFN-γ", "T2 sequence (P14902 whole entry)": "as the sequence (P14902 whole entry) above", "assay": "IDO1 Cellular Assay (kynurenine production in IFN-γ stimulated Hela cancer cells)", "format": "cell-based", "settings": "human IFN-γ 50 ng/mL, 48 hours incubation, kynurenine at 490 nm", "summary_of_the_method": "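HeLa cells stimulated with 50 ng/mL IFN-γ (final) and treated 48 h with compound (0–25 μM final, 0.25% DMSO). Supernatant kynurenine measured after TCA hydrolysis and p-dimethylaminobenzaldehyde reaction at 490 nm; inhibition vs DMSO control, IC50 by non-linear regression.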"}},
  "data": [
    {"compound": "CC1(C)C2CN(c3cc(Cl)cc4[nH]ncc34)CC2CN1S(C)(=O)=O", "note": "(single isomer, unassigned) [Example 1b]", "values": [
      {"measurement": "IC50", "setting": "[1]", "result": "≤ 100", "unit": "nM"},
      {"measurement": "IC50", "setting": "[2]", "result": "100 to 500", "unit": "nM"},
      {"measurement": "IC50", "setting": "[3]", "result": "≤ 500", "unit": "nM"},
      {"measurement": "IC50", "setting": "[4]", "result": "> 5000", "unit": "nM"}
    ]},
    {"compound": "CS(=O)(=O)N1C[C@@H]2C[C@@](O)(c3cc(Cl)cc4[nH]ncc34)C[C@@H]2C1", "note": "[Example 2, (3aR,5r,6aS)-5-(6-chloro-1H-indazol-4-yl)-2-(methylsulfonyl)octahydrocyclopenta[c]pyrrol-5-ol]", "values": [
      {"measurement": "IC50", "setting": "[1]", "result": "≤ 100", "unit": "nM"},
      {"measurement": "IC50", "setting": "[2]", "result": "100 to 500", "unit": "nM"},
      {"measurement": "IC50", "setting": "[3]", "result": "≤ 500", "unit": "nM"},
      {"measurement": "IC50", "setting": "[4]", "result": "500 to 1000", "unit": "nM"}
    ]},
    {"compound": "CC(=O)N1CC2CN(c3cc(Cl)cc4[nH]ncc34)CC2C1(C)C", "note": "(stereo not shown) [Example 18, 1-(5-(6-chloro-1H-indazol-4-yl)-1,1-dimethylhexahydropyrrolo[3,4-c]pyrrol-2(1H)-yl)ethanone]", "values": [
      {"measurement": "IC50", "setting": "[1]", "result": "≤ 100", "unit": "nM"},
      {"measurement": "IC50", "setting": "[2]", "result": "500 to 1000", "unit": "nM"},
      {"measurement": "IC50", "setting": "[3]", "result": "≤ 500", "unit": "nM"}
    ]},
    {"compound": "CC(=O)N1C[C@@H]2C[C@@](O)(c3cc(Cl)cc4[nH]ncc34)C[C@@H]2C1", "note": "[Example 22, 1-((3aR,5r,6aS)-5-(6-chloro-1H-indazol-4-yl)-5-hydroxyhexahydrocyclopenta[c]pyrrol-2(1H)-yl)ethanone]", "values": [
      {"measurement": "IC50", "setting": "[1]", "result": "≤ 100", "unit": "nM"},
      {"measurement": "IC50", "setting": "[2]", "result": "> 1000", "unit": "nM"},
      {"measurement": "IC50", "setting": "[3]", "result": "≤ 500", "unit": "nM"},
      {"measurement": "IC50", "setting": "[4]", "result": "> 5000", "unit": "nM"}
    ]},
    {"compound": "O[C@@]1(c2cc(Cl)cc3[nH]ncc23)C[C@H]2C[C@H]2C1", "note": "[Example 25, (1R,3r,5S)-3-(6-chloro-1H-indazol-4-yl)bicyclo[3.1.0]hexan-3-ol]", "values": [
      {"measurement": "IC50", "setting": "[1]", "result": "≤ 100", "unit": "nM"},
      {"measurement": "IC50", "setting": "[2]", "result": "500 to 1000", "unit": "nM"},
      {"measurement": "IC50", "setting": "[3]", "result": "≤ 500", "unit": "nM"},
      {"measurement": "IC50", "setting": "[4]", "result": "1000 to 5000", "unit": "nM"}
    ]}
  ]
}
